The source of these data is patent US20250019377A1 (JACOBIO PHARMACEUTICALS CO., LTD, priority 2021, published 2025).

Experiment [1] deals with T1, K-Ras G12V (Homo sapiens, UniProt P01116, G12V). Kind of experiment: biochemical.
Experiment [2] has as its target T1, K-Ras G12V. Kind of experiment: SOS1 catalyzed nucleotide exchange assay (GDP form K-Ras), K-Ras G12V. The note with it: read-out: K-Ras G12V GDP Biochemical Activity (IC50).
The target of experiment [3] is T2, K-Ras G13D (Homo sapiens, UniProt P01116, G13D). Kind of experiment: biochemical.
T2 sequence (P01116 1-169 isoform P01116-2 G13D): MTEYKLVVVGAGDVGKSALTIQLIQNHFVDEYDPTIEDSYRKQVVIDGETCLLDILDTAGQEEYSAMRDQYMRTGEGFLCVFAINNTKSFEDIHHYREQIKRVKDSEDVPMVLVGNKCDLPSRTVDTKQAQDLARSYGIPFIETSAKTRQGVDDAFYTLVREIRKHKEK
The target in experiment [4] is T2, K-Ras G13D. As to the kind of experiment: biochemical. The source holds these as a separate data set.
In experiment [5] the target is T3, K-Ras WT (Homo sapiens, UniProt P01116). As to the kind of experiment: SOS1 catalyzed nucleotide exchange assay (GDP form K-Ras), K-Ras WT. The note with it: read-out: K-Ras WT GDP Biochemical Activity (IC50).
T3 sequence (P01116 1-169 isoform P01116-2): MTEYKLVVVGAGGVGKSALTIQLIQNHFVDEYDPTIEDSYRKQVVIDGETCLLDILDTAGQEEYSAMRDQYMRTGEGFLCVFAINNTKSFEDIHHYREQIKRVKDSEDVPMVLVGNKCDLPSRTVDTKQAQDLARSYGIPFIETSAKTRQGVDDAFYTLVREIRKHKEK
Experiment [6] relates to p-ERK in NCI-H747 cells (K-Ras G13D).
Experimental: p-ERK (MAPK pathway) inhibition activity of each of compounds in a variety of K-Ras mutant and K-Ras WT cell lines indicated in Table 23 was evaluated.
Each of cells in culture medium was seeded in 96-well plates at density indicated in Table 23 and then put in a cell incubator to incubate overnight. The next day, the culture medium was removed and the compound diluted in assay medium was added in each well. […] 10 μL of cell lysates from the 96-well plates were transferred to a 384-well plate (Greiner) containing 2.5 μL/well HTRF® pre-mixed antibodies (Cisbio 64AERPEH). The plate was incubated 4 hours at 25° C. and then read HTRF signals on Tecan Spark multimode microplate reader. The data were analyzed using a 4-parameter logistic model to calculate IC50 values.
For experiment [7], the system named is AGS cells (K-Ras G12D). Kind of experiment: 2D cell growth inhibition assay, AGS. The format is cell-based. The note with it: Homo sapiens, 144 h, 6 days, absolute IC50.
Experimental: (§1) The cell growth inhibition activity of each of compounds was tested by performing cell growth inhibition assays on a variety of K-Ras mutant and K-Ras WT cell lines indicated in Table 25.
Each of cells in culture medium was plated in TC-treated 96-well plates at a density indicated in Table 25 and incubated in a cell incubator overnight. The next day, each of compounds was diluted in culture medium and added to the plates. After 6 days incubation in cell incubator, the cell viability was detected by CellTiter-Glo® Cell Viability Assay kit (Promega).
In experiment [8] the test system is NCI-H747 cells (K-Ras G13D).
Experimental: as §1
Each of cells in culture medium was plated in ultra-low attachment-coated 96-well plates at a density indicated in Table 25 and incubated in a cell incubator overnight. The next day, each of compounds was diluted in culture medium and added to the plates. After 6 days incubation in cell incubator, the cell viability was detected by CellTiter-Glo® 3D Cell Viability Assay kit (Promega).
Experiment [9] concerns p-ERK in SW620 cells (K-Ras G12V). As to the kind of experiment: Phospho-ERK1/2(THR202/TYR204) HTRF assay, SW620. The format is cell-based. The note with it: Homo sapiens, SW-620, 2 h, 2 hours incubation.
In experiment [10] the test system is AsPC-1 cells (K-Ras G12D). As to the kind of experiment: 2D cell growth inhibition assay, AsPC-1. The format is cell-based. The note with it: Homo sapiens, ASPC1, 144 h, AsPC-1, K-Ras G12D, 6 days, absolute IC50.
The test system of experiment [11] is SW620 cells (K-Ras G12V). As to the kind of experiment: 2D cell growth inhibition assay, SW620. The format is cell-based. Particulars: Homo sapiens, SW-620, 144 h, 6 days, absolute IC50.
For experiment [12], the system named is p-ERK in AGS cells (K-Ras G12D). As to the kind of experiment: Phospho-ERK1/2(THR202/TYR204) HTRF assay, AGS. The format is cell-based. Particulars: Homo sapiens, 2 h, 2 hours incubation.
For experiment [13], the target named is T3, K-Ras WT. As to the kind of experiment: biochemical.

“And” between values parts separate entries of the source, which are not always exact repeats. Equal entries are not always repeated. Where two headings read alike, the source gives them in different places.

T1 sequence (P01116 1-169 isoform P01116-2 G12V): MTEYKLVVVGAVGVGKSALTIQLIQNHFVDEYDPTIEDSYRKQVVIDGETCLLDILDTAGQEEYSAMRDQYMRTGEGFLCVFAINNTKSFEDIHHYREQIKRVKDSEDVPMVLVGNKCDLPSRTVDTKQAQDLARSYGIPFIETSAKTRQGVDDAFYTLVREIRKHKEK

For `C#Cc1c(F)ccc2cc(O)cc(-c3ncc4c(N5CCOC(C)CC5)nc(OC[C@@]56CCCN5C[C@H](F)C6)nc4c3F)c12` (stereo partly drawn) [Compound 17, 5-ethynyl-6-fluoro-4-(8-fluoro-2-(((2R,7aS)-2-fluorotetrahydro-1H-pyrrolizin-7a(5H)-yl)methoxy)-4-(7-methyl-1,4-oxazepan-4-yl)pyrido[4,3-d]pyrimidin-7-yl)naphthalen-2-ol trifluoroacetic acid], the values for the IC50 in experiment [1], in experiment [2] and in [3] were 796 nM, 26.8 nM and 61.2 nM, respectively.

On to `C#Cc1c(F)ccc2cc(O)cc(-c3ncc4c(N5CCCOCC5)nc(OCC5CNCCN5C)nc4c3F)c12` (stereo not drawn) [Compound 96, 5-ethynyl-6-fluoro-4-(8-fluoro-2-((1-methyl-piperazin-2-yl)methoxy)-4-(1,4-oxazepan-4-yl)pyrido[4,3-d]pyrimidin-7-yl)naph-thalen-2-ol], for which the IC50 in experiment [1] was 2770 nM; in experiment [4], 114 nM; in experiment [2], 18.6 nM; in experiment [5] it was 65.9 nM; in [3] it was above 100 nM.

As for `C#Cc1c(F)ccc2cc(O)cc(-c3ccc4c(N5CCCOCC5)nc(OCC5(CN6CCOCC6)CC5)nc4c3F)c12` [Compound 20, 5-ethynyl-6-fluoro-4-(8-fluoro-2-((1-(morpholinomethyl)cyclopropyl)methoxy)-4-(1,4-oxazepan-4-yl)quinazolin-7-yl)naphthalen-2-ol trifluoroacetic acid], the IC50 came to 28.2 nM in experiment [6]; 203 nM in experiment [7]; 1630 nM in [1]; 339 nM in experiment [8]; 29.3 nM in experiment [9]; 538 nM in experiment [10]. Also, the IC50 in [2] came to 8.81 nM; in experiment [5] it was 12.7 nM; in experiment [11], 139 nM; in experiment [12] it was 53 nM.

Consider `C#Cc1c(F)ccc2cc(O)cc(-c3ncc4c(N5CCOC[C@@H](OC)C5)nc(OC[C@@]56CCCN5C[C@H](F)C6)nc4c3F)c12` (single isomer, unassigned) [Compound 49A], for which the IC50 in experiment [1] was 5620 nM; in experiment [4], 24.7 nM; in [9], 98.6 nM; in [2], 11 nM; in experiment [5] it was 40.2 nM; in experiment [3], above 100 nM.

As for `C#Cc1c(F)ccc2cc(O)cc(-c3ncc4c(N5CCOC[C@H](OC)C5)nc(OC[C@@]56CCCN5C[C@H](F)C6)nc4c3F)c12` (single isomer, unassigned) [Compound 49B], the half-maximal inhibitory concentration (IC50) is 41.2 nM in experiment [7]; 552 nM in [1]; above 100 nM in experiment [4]; 19.9 nM in experiment [9]; 428 nM in experiment [10]; 0.77 nM in experiment [2]. For the same compound, the IC50 in experiment [13] is 144 nM; in experiment [5], 2 nM; in experiment [3], above 100 nM; in experiment [11], 54.5 nM; in experiment [12], 62.2 nM.

As to `C#Cc1c(F)ccc2cc(O)cc(-c3ncc4c(N5CCC6CC5CO6)nc(OC[C@@]56CCCN5C[C@H](F)C6)nc4c3F)c12` (stereo partly drawn) [Compound 93], the half-maximal inhibitory concentration (IC50) in experiment [1] was 2880 nM and 2030 nM; in experiment [4] it was above 200 nM; in experiment [9] it was 51.6 nM; in [2] it was 19.9 nM and 4.42 nM; in [13], 680 nM; in experiment [5], 56 nM and 13.5 nM. The figures for the IC50 in [3] and in [11] were above 100 nM and 182 nM, respectively.

Regarding `C#Cc1c(F)ccc2cc(O)cc(-c3ncc4c(N5CCCO[C@H](CC#N)C5)nc(OC[C@@]56CCCN5C[C@H](F)C6)nc4c3F)c12` (single isomer, unassigned), the IC50 in experiment [1] is 2070 nM; in [4], above 200 nM; in experiment [2] it was 23.7 nM; in [5], 60.2 nM; in experiment [3] it was above 100 nM.

Turning to `C#Cc1c(F)ccc2cc(O)cc(-c3ncc4c(N5CCCOCC5)nc(OCC5CN(C(=O)C=C)CCN5C)nc4c3F)c12` (stereo not drawn) [Compound 98, 1-(3-(((7-(8-ethynyl-7-fluoro-3-hydroxy-naphthalen-1-yl)-8-fluoro-4-(1,4-oxazepan-4-yl)pyrido[4,3-d]pyrimidin-2-yl)oxy)methyl)-4-methylpiperazin-1-yl)prop-2-en-1-one], the IC50 was 8190 nM in experiment [1]; above 200 nM in experiment [4]; 54.5 nM in experiment [2]; above 5000 nM in experiment [13]; 318 nM in experiment [5]; above 100 nM in experiment [3].

As for `C#Cc1c(F)ccc2cc(O)cc(-c3ncc4c(N5CCCOCC5)nc(OCC56CCCN5CCC6)nc4c3F)c12` [Compound 21, 5-ethynyl-6-fluoro-4-(8-fluoro-4-(1,4-oxazepan-4-yl)-2-((tetrahydro-1H-pyrrolizin-7a(5H)-yl)methoxy)pyrido[4,3-d]pyrimidin-7-yl)naphthalen-2-ol trifluoroacetic acid], the concentration for half-maximal inhibition (IC50) in [6] stood at 60.7 nM; in [7] it was 51.9 nM; in experiment [8], 126 nM; in [9], 135 nM; in experiment [10], 1350 nM; in experiment [11], 61.4 nM. This compound returned an IC50 in experiment [12] of 10.2 nM.

As to `C#Cc1c(F)ccc2cc(O)cc(-c3c(C(F)(F)F)cc4c(N5CCCOCC5)nc(OC[C@@]56CCCN5C[C@H](F)C6)nc4c3F)c12` [Compound 37, 5-ethynyl-6-fluoro-4-(8-fluoro-2-(((2R,7aS)-2-fluorotetrahydro-1H-pyrrolizin-7a(5H)-yl)methoxy)-4-(1,4-oxazepan-4-yl)-6-(trifluoromethyl)quinazolin-7-yl)naphthalen-2-ol], the IC50 in experiment [7] is 278 nM; in experiment [1], 147 nM; in [9], 92 nM; in experiment [10] it was 629 nM; in [2] it was 6.71 nM; in experiment [13] it was 228 nM. The IC50 in [5] is 9.93 nM; in [3] it was above 100 nM; in [11] it was 330 nM; in [12] it was 49.2 nM.

Regarding `C#Cc1c(F)ccc2cc(O)cc(-c3ncc4c(N5CCCOCC5)nc(OCC5CC6CCN5CC6)nc4c3F)c12` (stereo not drawn) [Compound 99, 5-ethynyl-6-fluoro-4-(8-fluoro-4-(1,4-oxa-zepan-4-yl)-2-(quinuclidin-2-ylmethoxy)pyrido[4,3-d]pyrimidin-7-yl)naphthalen-2-ol], the IC50 in experiment [1] was 2910 nM; in experiment [4], above 100 nM; in experiment [2] it was 22.6 nM; in [5], 34.3 nM; in experiment [3] it was above 100 nM.

Consider `C#Cc1c(F)ccc2cc(O)cc(-c3ncc4c(N5CCOCC(C)(F)C5)nc(OC[C@@]56CCCN5C[C@H](F)C6)nc4c3F)c12` (stereo partly drawn) [Compound 101, 5-ethynyl-6-fluoro-4-(8-fluoro-4-(6-fluoro-6-methyl-1,4-oxazepan-4-yl)-2-(((2R,7aS)-2-fluorotetrahydro-1H-pyrrolizin-7a(5H)-yl)methoxy)pyrido[4,3-d]pyrimidin-7-yl)naphthalen-2-ol], for which the IC50 was 25.5 nM in experiment [7]; 298 nM in experiment [1]; 2.18 nM in experiment [4]; 95.6 nM in [9]; 218 nM in experiment [10]; 2.7 nM in [2]. In addition, the IC50 was 194 nM in experiment [13], 2.56 nM in [5], 120 nM in experiment [11] and 7.7 nM in experiment [12].

Consider `C#Cc1c(F)ccc2cc(O)cc(-c3ncc4c(N5CCOCC(C#N)C5)nc(OC[C@@]56CCCN5C[C@H](F)C6)nc4c3F)c12` (stereo partly drawn) [Compound 88], for which the half-maximal inhibitory concentration (IC50) is 2850 nM in [1], 13.6 nM in [2], 28.5 nM in [5] and above 100 nM in experiment [3].
